Results: PMC12472322, “Structure–Activity Relationship Study of 3-Alkynyl-6-aryl-isothiazolo[4,3-b]pyridines as Dual Inhibitors of the Lipid Kinases PIKfyve and PIP4K2C” (Pharmaceuticals, 2025)

What was measured:
NCI-H460 = assay: cell proliferation assay (MTS, 72 h); conditions: Homo sapiens, NCI-H460, 72 h, read-out: CC50 NCI-H460
[1] = cell viability (AlamarBlue) in SARS-CoV-2-infected Vero E6/TMPRSS2 cells; format: cell-based; conditions: African green monkey, Vero E6/TMPRSS2 cells infected with SARS-CoV-2, half-maximal cytotoxic concentration, read-out: SARS-CoV2 CC50
LN-229 = assay: cell proliferation assay (MTS, 72 h); conditions: Homo sapiens, LN-229, 72 h, read-out: CC50 LN-229
Capan-1 = assay: cell proliferation assay (MTS, 72 h); conditions: Homo sapiens, CAPAN-1, 72 h, read-out: CC50 Capan-1
Z-138 = assay: cell proliferation assay (MTS, 72 h); conditions: Homo sapiens, Z-138, 72 h, read-out: CC50 Z-138
HCT-116 = assay: cell proliferation assay (MTS, 72 h); conditions: Homo sapiens, HCT-116, 72 h, read-out: CC50 HCT-116
SARS-CoV-2 = assay: microbe, parasite or virus in culture; format: cell-based, severe acute respiratory syndrome coronavirus 2; conditions: Severe acute respiratory syndrome coronavirus 2, VeroE6/TMPRSS2, 24 h; read-out: SARS-CoV2 EC50
DND-41 = assay: cell proliferation assay (MTS, 72 h); conditions: DND41, 72 h, read-out: CC50 DND-41
[2] = tested on: subcutaneous Burkitt lymphoma xenografts; conditions: oral administration, mice; cited from earlier work
VEEV (TC-83) = assay: microbe, parasite or virus in culture; format: cell-based; conditions: Venezuelan equine encephalitis virus, U-87 MG, 18 h, read-out: VEEV (TC-83) EC50
U-87 MG cells = conditions: half-maximal cytotoxic concentration
HL-60 = assay: cell proliferation assay (MTS, 72 h); conditions: Homo sapiens, HL-60, 72 h, read-out: CC50 HL-60
K-562 = assay: cell proliferation assay (MTS, 72 h); conditions: Homo sapiens, K562, 72 h, read-out: CC50 K-562
[3] = tested on: non-Hodgkin lymphoma (NHL) B-cell lines; conditions: large panel of NHL B-cell lines; read-out: antiproliferative IC50; cited from earlier work
PIP4K2C = biological target: T1, PIP4K2C (Homo sapiens, UniProt Q8TBX8); conditions: cited from earlier work
T1 sequence (Q8TBX8 1-421): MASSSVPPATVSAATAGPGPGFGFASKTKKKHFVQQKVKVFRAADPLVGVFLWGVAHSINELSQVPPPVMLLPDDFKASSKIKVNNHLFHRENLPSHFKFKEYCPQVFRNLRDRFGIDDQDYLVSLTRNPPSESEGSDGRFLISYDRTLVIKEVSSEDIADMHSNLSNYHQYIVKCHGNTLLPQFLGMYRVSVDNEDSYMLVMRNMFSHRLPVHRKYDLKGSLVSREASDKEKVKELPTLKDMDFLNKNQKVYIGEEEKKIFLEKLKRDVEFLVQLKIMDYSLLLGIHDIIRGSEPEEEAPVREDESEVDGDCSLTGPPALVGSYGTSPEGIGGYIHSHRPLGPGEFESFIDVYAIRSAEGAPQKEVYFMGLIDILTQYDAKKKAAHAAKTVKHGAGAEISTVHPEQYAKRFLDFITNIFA

SMILES | CC50 (NCI-H460) | CC50 [1] | CC50 (LN-229) | CC50 (Capan-1) | CC50 (Z-138) | CC50 (HCT-116) | EC50 (SARS-CoV-2) | CC50 (DND-41) | growth of subcutaneous Burkitt lymphoma xenografts [2] | EC50 (VEEV (TC-83)) | VEEV (TC-83) CC50 (U-87 MG cells) | CC50 (HL-60) | CC50 (K-562) | IC50 [3] | Kd (PIP4K2C)
Cc1cccc(/C=N/Nc2cc(N3CCOCC3)nc(OCCc3ccccn3)n2)c1 [Apilimod, reference compound] | < 20 nM | 18400 ± 420 nM | 80 ± 90 nM | < 20 nM | 60 nM | < 20 nM | 190 nM | 80 ± 20 nM | inhibits the growth | 1350 ± 490 nM | >10000 nM | 170 ± 20 nM | 330 ± 340 nM | < 200 nM | 
COc1ccc(-c2cnc3c(C#Cc4cccnc4)snc3c2)cc1OC [Compound 21, 6-(3,4-dimethoxyphenyl)-3-(pyridin-3-ylethynyl)isothiazolo[4,3-b]pyridine] | 2520 ± 1090 nM | > 20000 nM | 1620 ± 500 nM | 810 ± 110 nM | 770 ± 60 nM | 820 ± 370 nM |  | 1750 ± 1020 nM |  | 750 ± 20 nM | >10000 nM | 1470 ± 450 nM | 4240 ± 110 nM |  | 46 nM
FC(F)(F)c1ccccc1-c1nc(NCc2cccs2)c2ccccc2n1 [NIH-12848, reference compound] |  |  |  |  |  |  |  |  |  |  |  |  |  |  | 2800 nM
